According to PubChem BioAssay AID1918999 (Molecular Pharmacology Branch, DTP, NCI, 2023):

Tested on: 556581-035-R-J1-PDC complex spheroid growth
Experiment: Anticancer human tumor 556581-035-R-J1-PDC patient-derived ovarian carcinoma cell line growth inhibition [AhR]
Conditions: for IC50: curve of first compound; for viability, T/C: stronger effect = lower value
Method in brief: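 Agents were dosed in half-log steps down from roughly clinical Cmax, or from 10 microM where Cmax was unknown, alone and with AhR antagonists. Read-out: percent test/control growth of tumor spheroids containing HUVEC and MSC stromal cells.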

[1] = second compound 0.1 µM, first compound 0.0316 µM
[2] = second compound 0.1 µM, first compound 0.1 µM
[3] = second compound 0.1 µM, first compound 0.316 µM
[4] = second compound 0.1 µM, first compound 1 µM
[5] = second compound 0.1 µM, first compound 3.16 µM
[6] = second compound 0.1 µM, first compound 10 µM
[7] = second compound 0.316 µM, first compound 0.0316 µM
[8] = second compound 0.316 µM, first compound 0.1 µM
[9] = second compound 0.316 µM, first compound 0.316 µM
[10] = second compound 0.316 µM, first compound 1 µM
[11] = second compound 0.316 µM, first compound 3.16 µM
[12] = second compound 0.316 µM, first compound 10 µM
[13] = second compound 1 µM, first compound 0.0316 µM
[14] = second compound 1 µM, first compound 0.1 µM
[15] = second compound 1 µM, first compound 0.316 µM
[16] = second compound 1 µM, first compound 1 µM
[17] = second compound 1 µM, first compound 3.16 µM
[18] = second compound 1 µM, first compound 10 µM
[19] = second compound 3.16 µM, first compound 0.0316 µM
[20] = second compound 3.16 µM, first compound 0.1 µM
[21] = second compound 3.16 µM, first compound 0.316 µM
[22] = second compound 3.16 µM, first compound 1 µM
[23] = second compound 3.16 µM, first compound 3.16 µM
[24] = second compound 3.16 µM, first compound 10 µM
[25] = second compound 10 µM, first compound 0.0316 µM
[26] = second compound 10 µM, first compound 0.1 µM
[27] = second compound 10 µM, first compound 0.316 µM
[28] = second compound 10 µM, first compound 1 µM
[29] = second compound 10 µM, first compound 3.16 µM
[30] = second compound 10 µM, first compound 10 µM
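Wherever viability, T/C is given: compound exposure lasted 7 days; 100% = DMSO vehicle control growth.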

Work on `Nc1ncn(C2CC(O)C(CO)S2)c(=O)n1` (stereo not given) + Cc1cncc(-c2nc(NCCc3c[nH]c4ccccc34)c3ncn(C(C)C)c3n2)c1 yielded an IC50 (second compound 0.1 µM) greater than 300 nM, an IC50 (second compound 0.316 µM) greater than 300 nM and an IC50 (second compound 1 µM) greater than 300 nM. The IC50 (second compound 3.16 µM) was greater than 300 nM, the IC50 (second compound 10 µM) was greater than 300 nM and the viability, T/C (second compound 0.1 µM, first compound 0.000949 µM) was 99.3%. The viability, T/C (second compound 0.1 µM, first compound 0.003 µM) was 102%, the viability, T/C (second compound 0.1 µM, first compound 0.00949 µM) was 88.9% and the viability, T/C (second compound 0.1 µM, first compound 0.03 µM) was 93.8%. The viability, T/C (second compound 0.1 µM, first compound 0.0949 µM) was 82%, the viability, T/C (second compound 0.1 µM, first compound 0.3 µM) was 67.3% and the viability, T/C (second compound 0.316 µM, first compound 0.000949 µM) was 113%. The viability, T/C (second compound 0.316 µM, first compound 0.003 µM) was 109%, the viability, T/C (second compound 0.316 µM, first compound 0.00949 µM) was 111% and the viability, T/C (second compound 0.316 µM, first compound 0.03 µM) was 93.2%. For the same molecule, the viability, T/C (second compound 0.316 µM, first compound 0.0949 µM) was 81%, the viability, T/C (second compound 0.316 µM, first compound 0.3 µM) was 68% and the viability, T/C (second compound 1 µM, first compound 0.000949 µM) was 116%. The viability, T/C (second compound 1 µM, first compound 0.003 µM) was 109%, the viability, T/C (second compound 1 µM, first compound 0.00949 µM) was 99.5% and the viability, T/C (second compound 1 µM, first compound 0.03 µM) was 106%. It also gave a viability, T/C (second compound 1 µM, first compound 0.0949 µM) of 85.7%, a viability, T/C (second compound 1 µM, first compound 0.3 µM) of 80.4% and a viability, T/C (second compound 3.16 µM, first compound 0.000949 µM) of 87.7%. For the same molecule, the viability, T/C (second compound 3.16 µM, first compound 0.003 µM) was 84.8%, the viability, T/C (second compound 3.16 µM, first compound 0.00949 µM) was 95.8% and the viability, T/C (second compound 3.16 µM, first compound 0.03 µM) was 94.3%. The viability, T/C (second compound 3.16 µM, first compound 0.0949 µM) was 79.5%, the viability, T/C (second compound 3.16 µM, first compound 0.3 µM) was 72.9% and the viability, T/C (second compound 10 µM, first compound 0.000949 µM) was 84.7%. For the same molecule, the viability, T/C (second compound 10 µM, first compound 0.003 µM) was 86.7%, the viability, T/C (second compound 10 µM, first compound 0.00949 µM) was 91.6% and the viability, T/C (second compound 10 µM, first compound 0.03 µM) was 87.3%. The viability, T/C (second compound 10 µM, first compound 0.0949 µM) was 79.4% and the viability, T/C (second compound 10 µM, first compound 0.3 µM) was 72.6%.
With `Nc1ccn(C2OC(CO)C(O)C2(F)F)c(=O)n1` (stereo not given) + Cc1cncc(-c2nc(NCCc3c[nH]c4ccccc34)c3ncn(C(C)C)c3n2)c1 the IC50 (second compound 0.1 µM) was less than 31.6 nM, the IC50 (second compound 0.316 µM) was less than 31.6 nM and the IC50 (second compound 1 µM) was less than 31.6 nM. It also gave an IC50 (second compound 3.16 µM) of less than 31.6 nM, an IC50 (second compound 10 µM) of 6070 nM and a viability, T/C [1] of 32.8%. The viability, T/C [2] was 34.5%, the viability, T/C [3] was 35.8% and the viability, T/C [4] was 32.9%. The viability, T/C [5] was 34.1%, the viability, T/C [6] was 28.2% and the viability, T/C [7] was 34.5%. The viability, T/C [8] was 34.9%, the viability, T/C [9] was 37% and the viability, T/C [10] was 37.6%. For the same molecule, the viability, T/C [11] was 29.2%, the viability, T/C [12] was 32.7% and the viability, T/C [13] was 31.8%. For the same molecule, the viability, T/C [14] was 36.1%, the viability, T/C [15] was 36% and the viability, T/C [16] was 36.5%. The viability, T/C [17] was 32.7%, the viability, T/C [18] was 28.6% and the viability, T/C [19] was 43.3%. For the same molecule, the viability, T/C [20] was 45.4%, the viability, T/C [21] was 44.3% and the viability, T/C [22] was 45.9%. It also gave a viability, T/C [23] of 38.2%, a viability, T/C [24] of 33% and a viability, T/C [25] of 55.7%. The viability, T/C [26] was 64.2%, the viability, T/C [27] was 57% and the viability, T/C [28] was 62.7%. The viability, T/C [29] was 48.1% and the viability, T/C [30] was 48.6%.
Molecule `Nc1ccccc1NC(=O)c1ccc(CNC(=O)OCc2cccnc2)cc1` + Cc1cncc(-c2nc(NCCc3c[nH]c4ccccc34)c3ncn(C(C)C)c3n2)c1 has an IC50 (second compound 0.1 µM) of 2770 nM, an IC50 (second compound 0.316 µM) of 2420 nM and an IC50 (second compound 1 µM) of 2530 nM. It also gave an IC50 (second compound 3.16 µM) of 1940 nM, an IC50 (second compound 10 µM) of 791 nM and a viability, T/C [1] of 106%. It also gave a viability, T/C [2] of 100%, a viability, T/C [3] of 93.7% and a viability, T/C [4] of 76.3%. For the same molecule, the viability, T/C [5] was 46.2%, the viability, T/C [6] was 19.3% and the viability, T/C [7] was 107%. It also gave a viability, T/C [8] of 121%, a viability, T/C [9] of 102% and a viability, T/C [10] of 78.5%. The viability, T/C [11] was 42%, the viability, T/C [12] was 19.7% and the viability, T/C [13] was 108%. It also gave a viability, T/C [14] of 107%, a viability, T/C [15] of 89.5% and a viability, T/C [16] of 77%. It also gave a viability, T/C [17] of 42.2%, a viability, T/C [18] of 22.2% and a viability, T/C [19] of 93%. The viability, T/C [20] was 99.2%, the viability, T/C [21] was 98.7% and the viability, T/C [22] was 67%. It also gave a viability, T/C [23] of 37.6%, a viability, T/C [24] of 18.1% and a viability, T/C [25] of 79%. It also gave a viability, T/C [26] of 87%, a viability, T/C [27] of 64.5% and a viability, T/C [28] of 47.1%. It also gave a viability, T/C [29] of 22.8% and a viability, T/C [30] of 14.7%.
`Cn1ncnc1C1c2n[nH]c(=O)c3cc(F)cc(c23)NC1c1ccc(F)cc1` (stereo not given) + Cc1ccccc1N=Nc1ccc(NC(=O)c2ccnn2C)c(C)c1 showed an IC50 (second compound 0.1 µM) greater than 100 nM, an IC50 (second compound 0.316 µM) greater than 100 nM and an IC50 (second compound 1 µM) greater than 100 nM. For the same molecule, the IC50 (second compound 3.16 µM) was greater than 100 nM, the IC50 (second compound 10 µM) was greater than 100 nM and the viability, T/C (second compound 0.1 µM, first compound 0.000316 µM) was 102%. It also gave a viability, T/C (second compound 0.1 µM, first compound 0.001 µM) of 112%, a viability, T/C (second compound 0.1 µM, first compound 0.00316 µM) of 103% and a viability, T/C (second compound 0.1 µM, first compound 0.01 µM) of 105%. For the same molecule, the viability, T/C [1] was 94.9%, the viability, T/C [2] was 97.4% and the viability, T/C (second compound 0.316 µM, first compound 0.000316 µM) was 112%. For the same molecule, the viability, T/C (second compound 0.316 µM, first compound 0.001 µM) was 114%, the viability, T/C (second compound 0.316 µM, first compound 0.00316 µM) was 113% and the viability, T/C (second compound 0.316 µM, first compound 0.01 µM) was 103%. It also gave a viability, T/C [7] of 104%, a viability, T/C [8] of 94.3% and a viability, T/C (second compound 1 µM, first compound 0.000316 µM) of 116%. It also gave a viability, T/C (second compound 1 µM, first compound 0.001 µM) of 99.6%, a viability, T/C (second compound 1 µM, first compound 0.00316 µM) of 109% and a viability, T/C (second compound 1 µM, first compound 0.01 µM) of 100%. It also gave a viability, T/C [13] of 97.8%, a viability, T/C [14] of 105% and a viability, T/C (second compound 3.16 µM, first compound 0.000316 µM) of 110%. The viability, T/C (second compound 3.16 µM, first compound 0.001 µM) was 101%, the viability, T/C (second compound 3.16 µM, first compound 0.00316 µM) was 94.6% and the viability, T/C (second compound 3.16 µM, first compound 0.01 µM) was 96.5%. It also gave a viability, T/C [19] of 104%, a viability, T/C [20] of 111% and a viability, T/C (second compound 10 µM, first compound 0.000316 µM) of 92.2%. The viability, T/C (second compound 10 µM, first compound 0.001 µM) was 108%, the viability, T/C (second compound 10 µM, first compound 0.00316 µM) was 89.8% and the viability, T/C (second compound 10 µM, first compound 0.01 µM) was 98.8%. The viability, T/C [25] was 93.8% and the viability, T/C [26] was 92.3%.
`Nc1ccn(C2OC(CO)C(O)C2(F)F)c(=O)n1` (stereo not given) + CC(CO)NC(=O)c1cc(-c2ccc(Cl)cc2)nn(-c2cnn(C)c2)c1=O gave an IC50 (second compound 0.1 µM) of less than 31.6 nM, an IC50 (second compound 0.316 µM) of less than 31.6 nM and an IC50 (second compound 1 µM) of less than 31.6 nM. It also gave an IC50 (second compound 3.16 µM) of less than 31.6 nM, an IC50 (second compound 10 µM) of less than 31.6 nM and a viability, T/C [1] of 37%. The viability, T/C [2] was 40.3%, the viability, T/C [3] was 35.8% and the viability, T/C [4] was 35.8%. The viability, T/C [5] was 37.5%, the viability, T/C [6] was 31.4% and the viability, T/C [7] was 36.6%. The viability, T/C [8] was 35.2%, the viability, T/C [9] was 39.2% and the viability, T/C [10] was 41.1%. The viability, T/C [11] was 32%, the viability, T/C [12] was 29.3% and the viability, T/C [13] was 35%. For the same molecule, the viability, T/C [14] was 36.5%, the viability, T/C [15] was 36.5% and the viability, T/C [16] was 38.5%. For the same molecule, the viability, T/C [17] was 36.2%, the viability, T/C [18] was 36.6% and the viability, T/C [19] was 32.8%. It also gave a viability, T/C [20] of 37.3%, a viability, T/C [21] of 36.2% and a viability, T/C [22] of 38.3%. It also gave a viability, T/C [23] of 35.5%, a viability, T/C [24] of 34.3% and a viability, T/C [25] of 37.4%. For the same molecule, the viability, T/C [26] was 34.4%, the viability, T/C [27] was 42.5% and the viability, T/C [28] was 40.6%. It also gave a viability, T/C [29] of 39.6% and a viability, T/C [30] of 36%.
